Assay: Mean peak blood calcitonin concentration (Cmax) of sCT after oral capsule dosing of monkeys
Type: in vivo, cynomolgous monkeys
Text: 5-CNAC disodium salt ethanol solvate was screened through a 35 mesh Tyler standard sieve. 13.54 g of this material was weighed out and kept in a weighing boat. 0.028 g of parathyroid hormone (PTH) and 0.025 g of salmon calcitonin (sCT) were separately weighed out and kept in separate weighing boats. An amount of the previously weighed 5-CNAC disodium salt ethanol solvate approximately equivalent in volume to the total volume of PTH (i.e. a geometric amount) was prescreened through the same 35 mesh Tyler standard sieve on to clean paper. All the PTH was then screened through the same sieve onto the same paper. An amount of the screened 5-CNAC disodium salt ethanol solvate equivalent in volume to the total amount of material on the paper was screened through the same sieve. This was followed by screening the sCT through the same sieve on to the paper. A geometric amount of the 5-CNAC disodium salt ethanol solvate was then screened through the same sieve onto the paper. The materials on the paper were then transferred to a glass mortar and mixed by light trituration with a pestle. The remainder of the 5-CNAC disodium salt ethanol solvate was screened through the same 35 mesh Tyler standard sieve. […]
Four cynomolgous monkeys were dosed via a feeding tube two capsules each followed by 10 ml water. The mean peak blood calcitonin concentration, Cmax, of sCT was then measured.

CC(C)C[C@H](NC(=O)[C@H](CCCCN)NC(=O)CNC(=O)[C@H](CC(C)C)NC(=O)[C@@H](NC(=O)[C@@H]1CSSC[C@H](N)C(=O)N[C@@H](CO)C(=O)N[C@@H](CC(N)=O)C(=O)N[C@@H](CC(C)C)C(=O)N[C@@H](CO)C(=O)N[C@@H]([C@@H](C)O)C(=O)N1)C(C)C)C(=O)N[C@@H](CO)C(=O)N[C@@H](CCC(N)=O)C(=O)N[C@@H](CCC(=O)O)C(=O)N[C@@H](CC(C)C)C(=O)N[C@@H](Cc1c[nH]cn1)C(=O)N[C@@H](CCCCN)C(=O)N[C@@H](CC(C)C)C(=O)N[C@@H](CCC(N)=O)C(=O)N[C@H](C(=O)N[C@@H](Cc1ccc(O)cc1)C(=O)N1CCC[C@H]1C(=O)N[C@@H](CCCNC(=N)N)C(=O)N[C@H](C(=O)N[C@@H](CC(N)=O)C(=O)N[C@H](C(=O)NCC(=O)N[C@@H](CO)C(=O)NCC(=O)N[C@H](C(=O)N1CCC[C@H]1C(N)=O)[C@@H](C)O)[C@@H](C)O)[C@@H](C)O)[C@@H](C)O [sCT, salmon calcitonin]
mean peak blood concentration of sCT relative to that found when dosing capsules of 5-CNAC and sCT in rhesus monkeys (capsules of 5-CNAC disodium salt ethanol solvate, PTH and sCT in cynomolgous monkeys vs capsules of 5-CNAC and sCT in rhesus monkeys): about four | Cmax (monkey, blood, oral, cynomolgous monkeys, via feeding tube two capsules each (per capsule approx. 226.28 mg 5-CNAC disodium salt ethanol solvate, 0.461 mg PTH, 0.411 mg sCT) followed by 10 ml water): 2 to 2.5 ng/mL

— patent US20080146509A1, “COMPOSITIONS FOR DELIVERING PARATHYROID HORMONE AND CALCITONIN” (EMISPHERE TECHNOLOGIES, INC., priority 2002, published 2008)
